In US6489352B2, “Conformationally constrained compounds as pharmaceutical agents” (Warner-Lambert Company, priority 1998, dated 2002):
Counter-ions that a name gives are not always drawn.

How the values were obtained:
[1] = biological target: T1, α2δ subunit derived from porcine brain tissue (Sus scrofa, UniProt A0A287BIN3); experiment: radioligand binding assay using [3H]gabapentin and the α2δ subunit; details: read-out: IC50 (μM) at α2δ Binding Site
T1 construct: the α2δ subunit derived from porcine brain tissue was used; from tissue; host or cells: porcine brain tissue
T1 sequence (A0A287BIN3 25-1109): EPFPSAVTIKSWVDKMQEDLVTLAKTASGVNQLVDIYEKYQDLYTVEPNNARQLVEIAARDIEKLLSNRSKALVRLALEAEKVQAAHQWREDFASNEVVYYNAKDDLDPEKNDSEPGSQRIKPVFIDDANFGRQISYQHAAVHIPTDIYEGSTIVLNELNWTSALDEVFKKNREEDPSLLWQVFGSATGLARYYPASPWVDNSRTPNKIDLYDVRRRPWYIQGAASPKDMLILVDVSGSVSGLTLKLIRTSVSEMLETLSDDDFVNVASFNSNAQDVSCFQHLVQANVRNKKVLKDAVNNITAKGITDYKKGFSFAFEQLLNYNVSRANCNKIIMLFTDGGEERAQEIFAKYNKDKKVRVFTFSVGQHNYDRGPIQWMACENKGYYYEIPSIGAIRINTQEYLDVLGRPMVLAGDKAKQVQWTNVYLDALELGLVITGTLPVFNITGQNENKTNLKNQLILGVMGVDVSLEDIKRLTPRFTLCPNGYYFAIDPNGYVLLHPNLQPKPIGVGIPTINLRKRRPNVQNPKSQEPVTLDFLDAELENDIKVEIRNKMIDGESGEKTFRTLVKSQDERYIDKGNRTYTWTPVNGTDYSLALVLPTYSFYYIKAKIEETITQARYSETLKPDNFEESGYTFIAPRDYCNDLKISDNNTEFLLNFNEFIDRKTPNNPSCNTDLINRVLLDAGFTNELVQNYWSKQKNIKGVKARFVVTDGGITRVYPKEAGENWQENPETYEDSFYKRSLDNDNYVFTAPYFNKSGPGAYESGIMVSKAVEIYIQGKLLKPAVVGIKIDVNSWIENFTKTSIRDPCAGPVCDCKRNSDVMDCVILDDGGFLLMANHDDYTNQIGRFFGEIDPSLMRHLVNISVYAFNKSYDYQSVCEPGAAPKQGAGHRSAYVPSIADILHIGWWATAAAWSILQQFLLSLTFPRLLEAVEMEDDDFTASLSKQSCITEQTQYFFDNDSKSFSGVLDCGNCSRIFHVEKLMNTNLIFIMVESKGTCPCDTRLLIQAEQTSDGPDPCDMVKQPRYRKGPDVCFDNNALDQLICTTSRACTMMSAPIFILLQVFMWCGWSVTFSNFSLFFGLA

[2] = test system: carrageenin-induced hyperalgesia in the rat paw; experiment: Carrageenin-induced hyperalgesia, rat paw pressure test (Randall-Selitto); assay type: in vivo, rat (male Sprague-Dawley); details: dosed orally at 30 mg/kg
Description: Carrageenin-Induced Hyperalgesia
Nociceptive pressure thresholds were measured in the rat paw pressure test using an analgesimeter (Randall-Selitto method: Randall L. O. and Selitto J. J., “A method for measurement of analgesic activity on inflamed tissue,” Arch. Int. Pharmacodyn., 1957;4:409-419). Male Sprague-Dawley rats (70-90 g) were trained on this apparatus before the test day. Pressure was gradually applied to the hind paw of each rat and nociceptive thresholds were determined as the pressure (g) required to elicit paw withdrawal. A cutoff point of 250 g was used to prevent any tissue damage to the paw. On the test day, two to three baseline measurements were taken before animals were administered 100 μL of 2% carrageenin by intraplantar injection into the right hind paw.
(R)-2-Aza-spiro[4.5]decane-4-carboxylic acid hydrochloride was tested in the above carrageenan-induced hyperalgesia model. The compound was dosed orally at 30 mg/kg, and 1 hour postdose gave a percent of maximum possible effect (MPE) of 53%. At 2 hours postdose, it gave only 4.6% of MPE.

Row | Structure (SMILES) | IC50 [1] | melting point | percent of maximum possible effect (MPE) ([2]; 1 hour postdose) | percent of maximum possible effect (MPE) ([2]; 2 hours postdose)
1 | Cl.O=C(O)C1NCC12CCCCC2 (racemic) [(±)-2-Aza-spiro[3.5]nonane-1-carboxylic acid hydrochloride] | 1.5 µM | 163 to 165 °C | – | –
2 | O=C(O)[C@@H]1CNCC12CCCCC2 [(S)-2-Aza-spiro[4.5]decane-4-carboxylic acid hydrochloride] | > 10 µM | – | – | –
3 | Cl.O=C(O)[C@H]1CNCC12CCCCC2 [(R)-2-Aza-spiro[4.5]decane-4-carboxylic acid hydrochloride] | 0.16 µM | – | 53% | 4.6%

The next lines start with results.

Row | IC50 [1] | melting point | Structure (SMILES) | percent of maximum possible effect (MPE) ([2]; 1 hour postdose) | percent of maximum possible effect (MPE) ([2]; 2 hours postdose)
4 | 0.35 µM | – | O=C(O)C1CNCC12CCCCC2 (racemic) [(±)-2-Aza-spiro[4.5]decane-4-carboxylic acid hydrochloride] | – | –
5 | 0.42 µM | – | O=C(O)C1CNCC12C1CC3CC(C1)CC2C3 (stereo not drawn) [Spiro[pyrrolidine-3,2′-tricyclo[3.3.1.1^3,7]decane]-4-carboxylic acid] | – | –
6 | 0.57 µM | – | O=C(O)C1CNCC12C1CCCC2CCC1 (stereo not drawn) [Spiro[bicyclo[3.3.1]nonane-9,3′-pyrrolidine]-4′-carboxylic acid] | – | –
